For assay [1], the system named is anti-HA antibody. As to the kind of experiment: anti-HA antibody binding assay on MTP-bound peptides (fluorescence, SAPE detection).
For assay [2], the system named is anti-HA antibody. As to the kind of experiment: HA competitive binding: free peptide in solution competes with […] on MTPs for the anti-HA antibody. To be noted: for competitive activity against YPYDVPDYA peptide on MTPs for anti-HA antibody: free peptide with spacer GG in solution, FIG. 3.

With YPYDVPDYA, the “recognition by / affinity to anti-HA antibody in HA peptide assay” value in the assay on anti-HA antibody [1] ([…], QC control group vial #9, data not shown) is on record as “specifically recognized by anti-HA antibody”. In addition, in the assay with anti-HA antibody [2], the “competitive activity against YPYDVPDYA peptide on MTPs for anti-HA antibody” value (“competitive activity” below) is recorded as “reduced assay signal”.

For the substance HKRK, the “assay signal (binding to anti-HA antibody) in screen of random 4-aa peptide library” value in the assay with anti-HA antibody [1] (5,307 random 4-aa peptides on MTPs, 10 ug/mL biotinylated anti-HA monoclonal antibody, fluorescence at 532 nm) is given as “very low binding”. Further, the “competitive activity” value in the assay on anti-HA antibody [2] was “no competitive activity”.

For the substance YHYY, in the assay on anti-HA antibody [2], the “competitive activity” value is given as “competed well”. In the assay with anti-HA antibody [2] (taken together from results of FIG. 3 and screen), the “binding affinity to the anti-HA antibody (conclusion from competition and screen)” value is given as “high binding affinity”.

The values are drawn from patent US20160370380A1, “COMBINATORIAL ANTIBODY DIAGNOSTIC” (PharmaSeq, Inc., priority 2015, published 2016).
